Assay results reported in patent publication US9273014B2, “Bis(fluoroalkyl)-1,4-benzodiazepinone compounds and prodrugs thereof” (Bristol-Myers Squibb Company, priority 2012, dated 2016).

Experiment: in vitro
Details: human, microsomes, pH 7.4

SMILES | half-life [min]
CCC[C@H](C(N)=O)[C@@H](CC(C)C)C(=O)N[C@H]1N=C(c2ccccc2)c2ccccc2N(C)C1=O [Comparative Compound 45, reference compound] | 8
C=CC[C@H](C(N)=O)[C@@H](CC(C)C)C(=O)N[C@H]1N=C(c2ccccc2)c2cc(Cl)ccc2N(C)C1=O [Comparative Compound 46, reference compound] | 6
CCCC[C@H](C(N)=O)[C@@H](CC(C)C)C(=O)N[C@H]1N=C(c2ccc(Cl)cc2)c2ccccc2N(C)C1=O [Comparative Compound 47, reference compound] | 6
C=CC[C@H](C(N)=O)[C@@H](CC(C)C)C(=O)N[C@H]1N=C(c2ccccc2)c2ccccc2N(CCC)C1=O [Comparative Compound 48, reference compound] | 3
Cc1cccc2c1NC(=O)[C@@H](NC(=O)[C@H](CCC(F)(F)F)[C@H](CCC(F)(F)F)C(N)=O)N=C2c1cccc(Cl)c1 [Example 7, (2R,3S)—N-((3S)-5-(3-Chlorophenyl)-9-methyl-2-oxo-2,3-dihydro-1H-1,4-benzodiazepin-3-yl)-2,3-bis(3,3,3-trifluoropropyl)succinamide] | > 120
Cc1cccc(C2=N[C@H](NC(=O)[C@H](CCC(F)(F)F)[C@H](CCCC(F)(F)F)C(N)=O)C(=O)Nc3c2cccc3C(F)(F)F)c1 [Example 11, (2R,3S)—N-((3S)-5-(3-Methylphenyl)-2-oxo-9-(trifluoromethyl)-2,3-dihydro-1H-1,4-benzodiazepin-3-yl)-3-(4,4,4-trifluorobutyl)-2-(3,3,3-trifluoropropyl)succinamide] | 42
CC(C)c1cccc2c1NC(=O)[C@@H](NC(=O)[C@H](CCC(F)(F)F)[C@H](CCC(F)(F)F)C(N)=O)N=C2c1ccccc1 [Example 13, (2R,3S)—N-((3S)-9-Isopropyl-2-oxo-5-phenyl-2,3-dihydro-1H-1,4-benzodiazepin-3-yl)-2,3-bis(3,3,3-trifluoropropyl)succinamide] | 48
Cc1cccc(C2=N[C@H](NC(=O)[C@H](CCC(F)(F)F)[C@H](CCCC(F)(F)F)C(N)=O)C(=O)Nc3c(OC4CC4)cccc32)c1 [Example 14, (2R,3S)—N-((3S)-9-(Cyclopropyloxy)-5-(3-methylphenyl)-2-oxo-2,3-dihydro-1H-1,4-benzodiazepin-3-yl)-3-(4,4,4-trifluorobutyl)-2-(3,3,3-trifluoropropyl)succinamide] | 56
Cc1cccc(C2=N[C@H](NC(=O)[C@H](CCC(F)(F)F)[C@H](CCC(F)(F)F)C(N)=O)C(=O)Nc3c(OC4CC4)cccc32)c1 [Example 15, (2R,3S)—N-((3S)-9-(Cyclopropyloxy)-5-(3-methylphenyl)-2-oxo-2,3-dihydro-1H-1,4-benzodiazepin-3-yl)-2,3-bis(3,3,3-trifluoropropyl)succinamide] | 101
COc1cccc2c1NC(=O)[C@@H](NC(=O)[C@H](CCC(F)(F)F)[C@H](CCC(F)(F)F)C(N)=O)N=C2c1cccc(C)c1 [Example 29, (2R,3S)—N-((3S)-5-(3-Methylphenyl)-9-methoxy-2-oxo-2,3-dihydro-1H-1,4-benzodiazepin-3-yl)-2,3-bis(3,3,3-trifluoropropyl)succinamide] | 98
NC(=O)[C@@H](CCC(F)(F)F)[C@@H](CCC(F)(F)F)C(=O)N[C@H]1N=C(c2ccc(CO)cc2)c2ccccc2NC1=O [Example 30, (2R,3S)—N-((3S)-5-(4-(Hydroxymethyl)phenyl)-2-oxo-2,3-dihydro-1H-1,4-benzodiazepin-3-yl)-2,3-bis(3,3,3-trifluoropropyl)succinamide] | 92
Cc1cccc(C2=N[C@H](NC(=O)[C@H](CCC(F)(F)F)[C@H](CCC(F)(F)F)C(N)=O)C(=O)Nc3ccccc32)c1 [Example 32, (2R,3S)—N-((3S)-5-(3-Methylphenyl)-2-oxo-2,3-dihydro-1H-1,4-benzodiazepin-3-yl)-2,3-bis(3,3,3-trifluoropropyl)succinamide] | 82
